Assay: solvent given as SMILES

O
Conditions | solvation free energy, 298 K [kcal/mol]
in BrC(Br)Br | -1.76
in BrC(Br)C(Br)Br | -1.63
in BrCCBr | -1.98
in C1CCCCC1 | -0.54
in C1COCCO1 | -4.37
in C=CCCCCCCC=C | -1.19
in C=CCCCCCCCCCCCCCC | -0.63
in CC(C)=O | -4.34
in CC(C)C | -0.64
in CC(C)C(C)C | -0.56
in CC(C)C(C)C(C)C | -0.49
in CC(C)CC(C)(C)C | -0.52
in CC(C)CC(C)C | -0.51
in CC(C)CCC(C)(C)C | -0.49
in CCC | -0.66
in CCC(C)(C)C | -0.51
in CCC(C)=O | -4.02
in CCC(C)C | -0.56
in CCC(C)CC | -0.59
in CCCC(C)C | -0.55
in CCCC(C)CC | -0.47
in CCCCC | -0.64
in CCCCC(=O)CC | -3.3
in CCCCCC | -0.67
in CCCCCCC | -0.72
in CCCCCCCC | -0.73
in CCCCCCCCC | -0.53
in CCCCCCCCCC | -0.48
in CCCCCCCCCCC | -0.47
in CCCCCCCCCCCC | -0.44
in CCCCCCCCCCCCC | -0.4
in CCCCCCCCCCCCCCCC | -0.42
in CCCCCCCCCCO | -3.98
in CCCCCCCCO | -4.15
in CCCCO | -4.5
in CCCCOCCO | -4.6
in CCCO | -4.76
in CCCOCC(C)O | -4.29
in CCO | -5.05
in CN(C)C=O | -5.55
in CNC(C)=O | -5.8
in CNC=O | -5.28
in CO | -5.59
in ClC(Cl)(Cl)Cl | -1.15
in ClC(Cl)=C(Cl)Cl | -1.15
in NC=O | -5.67
in S=C=S | -1.01

Clc1ccc(-c2ccc(Cl)c(Cl)c2Cl)cc1Cl
Conditions | solvation free energy, 298 K [kcal/mol]
in CCCCCCCCO | -12.9

CC(Cl)Cl
Conditions | solvation free energy, 298 K [kcal/mol]
in CCCCCCCCO | -3.29
in ClC(Cl)(Cl)Cl | -3.78
in ClC(Cl)Cl | -4.11
in ClCCCl | -4.02
in O | -0.84

Cc1ccc(O)c(O)c1
Conditions | solvation free energy, 298 K [kcal/mol]
in CCCCCC | -6.99
in CCCCCCC | -7.05
in CCCCCCCC | -7.02
in Cc1ccc(C)cc1 | -9.05
in Cc1cccc(C)c1 | -9.05
in Cc1ccccc1C | -9.05

CC1CCCC(O)C1 (stereo unspecified)
Conditions | solvation free energy, 298 K [kcal/mol]
in O | -5.21

Oc1c(Cl)cc(Cl)cc1Cl
Conditions | solvation free energy, 298 K [kcal/mol]
in CCCCCCCCC=CCCCCCCCC(=O)OCC(COC(=O)CCCCCCCC=CCCCCCCCC)OC(=O)CCCCCCCC=CCCCCCCCC | -8.28
in O | -4.95

CN1C2CCC1CC(OC(=O)C(CO)c1ccccc1)C2 (stereo unspecified)
Conditions | solvation free energy, 298 K [kcal/mol]
in CCO | -18

Clc1ccc(Cl)c(-c2ccccc2Cl)c1
Conditions | solvation free energy, 298 K [kcal/mol]
in CCCCCCCCC=CCCCCCCCC(=O)OCC(COC(=O)CCCCCCCC=CCCCCCCCC)OC(=O)CCCCCCCC=CCCCCCCCC | -9.75
in O | -2.37

CC(=O)OC1(C(C)C)CC=C(C)CC1 (stereo unspecified)
Conditions | solvation free energy, 298 K [kcal/mol]
in O | -3.25

Nc1ccc(O)c2c1C(=O)c1ccccc1C2=O
Conditions | solvation free energy, 298 K [kcal/mol]
in O | -9.53

CCc1cccc(O)c1
Conditions | solvation free energy, 298 K [kcal/mol]
in O | -6.25

CC(=O)CC(=O)c1cccs1
Conditions | solvation free energy, 298 K [kcal/mol]
in O | -6.08

CCCC(C)=O
Conditions | solvation free energy, 298 K [kcal/mol]
in CC(C)CC(C)(C)C | -4.14
in CC(C)CCCC(C)CCCC(C)CCCCC(C)CCCC(C)CCCC(C)C | -3.72
in CCCCCCC | -4.07
in CCCCCCCC | -3.87
in CCCCCCCCCC | -3.93
in CCCCCCCCCCCCCCCC | -3.74
in CCCCCCCCO | -4.35
in CCN1CCCC1=O | -4.86
in CCN(CC)C(C)=O | -4.91
in CCNC(C)=O | -4.61
in CCNC=O | -4.69
in CN1CCCC1=O | -4.73
in CN1CCCCC1=O | -4.83
in CNC=O | -4.69
in CO | -4.88
in NC=O | -4.12
in O | -3.46
in O=CN1CCOCC1 | -4.52
in [2H]O[2H] | -3.38

CC(C)CCCC(C)C1CCC2C3CC=C4CC(O)CCC4(C)C3CCC12C (stereo unspecified)
Conditions | solvation free energy, 298 K [kcal/mol]
in O | -5.93

C=CCO
Conditions | solvation free energy, 298 K [kcal/mol]
in CC(=O)N(C)C | -4.69
in CCCCN(C=O)CCCC | -5.42
in CNC(C)=O | -5.87
in O | -5.04

CCCCCC(N)=O
Conditions | solvation free energy, 298 K [kcal/mol]
in O | -9.31

CCCCC(CC)CO (stereo unspecified)
Conditions | solvation free energy, 298 K [kcal/mol]
in O | -3.96

O=C(O)c1ccc(O)cc1
Conditions | solvation free energy, 298 K [kcal/mol]
in C1CCOC1 | -11.4
in C1COCCO1 | -11.2
in CC(=O)N(C)C | -11.8
in CC(C)(C)O | -11.2
in CC(C)=O | -11.5
in CC(C)CO | -11.3
in CC(C)O | -11.5
in CCC(C)O | -11.2
in CCCCCCCCO | -11
in CCCCCCO | -11.2
in CCCCCO | -11.3
in CCCCO | -11.4
in CCCCOC(C)=O | -10.8
in CCCCOCCCC | -10.2
in CCCO | -11.5
in CCO | -11.7
in CCOC(C)=O | -11
in CCOCC | -10.8
in CN(C)C=O | -11.8
in CNC=O | -11.7
in O | -9.25

From the CombiSolv-Exp solvation set (Vermeire and Green 2021)
